The source made the active and inactive calls. No cut-off for these calls is given here.
Legend:
[1] = biological target: Dihydrofolate reductase (Lactobacillus casei) (UniProt P00381); experiment: Inhibition of DCM-resistant Lactobacillus casei DHFR at 0.13 mM; settings: Lacticaseibacillus casei
[2] = test system: Enterococcus faecium; experiment: Growth inhibition of Streptococcus faecium ATCC 8043 at 50 ng/ml by turbidimetric method; assay type: functional; settings: read-out: GI
[3] = biological target: Dihydrofolate reductase (Lactobacillus casei) (UniProt P00381); experiment: Activity at DCM-resistant Lactobacillus casei DHFR; settings: Lacticaseibacillus casei
[4] = biological target: Dihydrofolate reductase (Lactobacillus casei) (UniProt P00381); experiment: Activity at DCM-resistant Lactobacillus casei DHFR relative to 7,8-dihydrofolic acid; settings: Lacticaseibacillus casei
[5] = biological target: Dihydrofolate reductase (Lactobacillus casei, UniProt P00381); experiment: Inhibition of DCM-resistant Lactobacillus casei DHFR; parameters: species or system Lacticaseibacillus casei; settings: read-out: I50
Sequence of Dihydrofolate reductase (P00381 whole entry): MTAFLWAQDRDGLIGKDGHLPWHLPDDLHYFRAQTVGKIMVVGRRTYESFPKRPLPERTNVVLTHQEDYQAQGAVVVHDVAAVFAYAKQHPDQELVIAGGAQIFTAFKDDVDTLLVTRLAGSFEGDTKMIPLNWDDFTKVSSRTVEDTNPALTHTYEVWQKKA

[6] = test system: Enterococcus faecium; experiment: Growth inhibition of Streptococcus faecium ATCC 8043 at 5 ng/ml by turbidimetric method; assay type: functional; settings: read-out: GI

Sequence of Dihydrofolate reductase (Lactobacillus casei) (P00381 whole entry): as above

## Nc1nc(=O)c2nc(COc3ccc(C(=O)N[C@@H](CCC(=O)O)C(=O)O)cc3)cnc2[nH]1
[1]
  inhibition: inactive
[2]
  inhibition of growth at 0.05 µg/mL: 50%

## Nc1nc(=O)c2c([nH]1)NCC(COc1ccc(C(=O)N[C@@H](CCC(=O)O)C(=O)O)cc1)=N2
[1]
  inhibition: inactive
[3]
  Activity: inactive

## Nc1nc(=O)c2c([nH]1)NCC(CSc1ccc(C(=O)N[C@@H](CCC(=O)O)C(=O)O)cc1)=N2
[4]
  Activity: 28%

## Nc1nc(N)c2nc(COc3ccc(C(=O)N[C@@H](CCC(=O)O)C(=O)O)cc3)cnc2n1
[5]
  IC50: 4.5 nM
[6]
  inhibition of growth at 0.005 µg/mL: 50%

— ChEMBL document CHEMBL3272223, “Folate analogues altered in the C9-N10 bridge region. 10-Oxafolic acid and 10-oxaaminopterin” (J Med Chem, 1976)
